Data published in PMC10132233 (Journal of Enzyme Inhibition and Medicinal Chemistry, 2023).

Tests used:
[1] = tested on: PC3 prostate carcinoma cell line; assay: MTT cytotoxicity assay, PC3; format: cell-based; conditions: Homo sapiens, 24 h
Text: (§1) Accordingly, we aimed to investigate the cytotoxic potential of this new series against prostate carcinoma cell lines. […] The potent nanomolar cell-based activity of this series of compounds over the tested prostate carcinoma cell line could be attributed to other possible targets in addition to EGFR and HER2 receptors. The presence of the 2-nitroimidazole moiety in the chemical structure of compounds 9a–h could develop possible covalent bonds between the nitroimidazole moiety and some cellular proteins.
(§2) Prostate cancer cell lines (PC3 and 22RV1) of American Type Culture Collection (ATCC) were obtained from Korean Cell Center (KCL). PC3 and 22RV1 cell lines were cultured in Roswell Park Memorial Institute Medium (RPMI) 1640 and Dulbecco’s modified Eagle’s medium (DMEM) (GenDepot, Barker, TX) supplemented with 1% penicillin–streptomycin and 10% foetal bovine serum (FBS). The cells were maintained at 37 °C in a 5% CO2 with a 95% humid atmosphere.
(§3) To further analyse the intracellular cytotoxicity effect of the as-synthesised compounds, MTT assay was performed. Moreover, the experiments were divided into subcategories. In each group, cancer cells were first seeded in 96-well plates (4 × 10^4 cells per well) and then incubated for 24 h at 37 °C in a 5% CO2-containing atmosphere. Subsequently, the medium from the culture plate was removed, and 100 µL of RPMI media containing different concentrations of compounds (0.01, 0.005, 0.0025, 0.00125, and 0.000625 µM) were then added into the cell lines in each well and incubated for 24 h in a 5% CO2 humidified incubator at 37 °C. Afterwards, MTT solution (150 μL, 1 mg/mL) was added to each well, replacing the media-containing compounds. After 4 h of incubation, the MTT reagent was removed, and 200 μL of DMSO was then added to dissolve the formazan crystals, and colour intensity was measured at a wavelength of 540 nm using a BioTek Synergy H1 instrument (BioTek, Winooski, VT). IC50 was calculated according to the equation of Boltzmann sigmoidal concentration–response curve using Graph Pad Prism 5 (La Jolla, CA).

[2] = tested on: 22RV1 prostate carcinoma cell line; assay: MTT cytotoxicity assay, 22RV1; format: cell-based; conditions: Homo sapiens, 24 h
Text: as §1, §2, §3

[3] = molecular target: EGFR (Homo sapiens, UniProt P00533); assay: HotSpot kinase assay over EGFR (Reaction Biology); conditions: read-out: % kinase inhibition EGFR
Sequence of EGFR (P00533 25-1210): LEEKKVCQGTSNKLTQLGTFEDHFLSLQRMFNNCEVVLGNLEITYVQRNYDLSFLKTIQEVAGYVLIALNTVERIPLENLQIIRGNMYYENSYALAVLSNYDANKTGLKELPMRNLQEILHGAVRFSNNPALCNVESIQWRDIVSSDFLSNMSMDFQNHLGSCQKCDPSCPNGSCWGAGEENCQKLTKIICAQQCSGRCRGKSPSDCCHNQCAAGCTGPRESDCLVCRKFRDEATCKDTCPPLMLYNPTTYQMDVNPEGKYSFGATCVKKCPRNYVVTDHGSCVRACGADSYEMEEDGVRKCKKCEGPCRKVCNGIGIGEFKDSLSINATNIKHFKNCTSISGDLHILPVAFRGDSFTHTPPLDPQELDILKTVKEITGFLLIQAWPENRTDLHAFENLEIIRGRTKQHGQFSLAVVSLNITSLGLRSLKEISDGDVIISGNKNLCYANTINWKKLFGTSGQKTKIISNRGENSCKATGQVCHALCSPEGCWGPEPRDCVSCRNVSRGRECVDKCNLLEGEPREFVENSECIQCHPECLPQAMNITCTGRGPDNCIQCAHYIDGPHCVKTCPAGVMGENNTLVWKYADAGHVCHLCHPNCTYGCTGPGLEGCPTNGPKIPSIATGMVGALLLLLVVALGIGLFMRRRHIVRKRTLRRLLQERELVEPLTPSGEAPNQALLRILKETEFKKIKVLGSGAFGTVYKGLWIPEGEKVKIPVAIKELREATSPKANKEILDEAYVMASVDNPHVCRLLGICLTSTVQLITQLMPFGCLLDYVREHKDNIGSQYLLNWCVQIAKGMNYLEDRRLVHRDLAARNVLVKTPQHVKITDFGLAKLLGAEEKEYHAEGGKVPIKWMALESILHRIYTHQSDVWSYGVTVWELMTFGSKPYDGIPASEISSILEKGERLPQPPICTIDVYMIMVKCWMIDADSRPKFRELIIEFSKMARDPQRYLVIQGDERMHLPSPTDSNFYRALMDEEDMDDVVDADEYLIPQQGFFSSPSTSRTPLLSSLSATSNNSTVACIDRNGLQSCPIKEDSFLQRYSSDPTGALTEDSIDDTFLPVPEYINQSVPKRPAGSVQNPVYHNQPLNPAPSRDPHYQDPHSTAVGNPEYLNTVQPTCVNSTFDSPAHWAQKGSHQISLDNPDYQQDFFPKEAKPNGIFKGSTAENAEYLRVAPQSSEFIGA

[4] = molecular target: HER2 (Homo sapiens, UniProt P04626); assay: HotSpot kinase assay over HER2 (Reaction Biology); conditions: read-out: % kinase inhibition HER2
Sequence of HER2 (P04626 23-1255): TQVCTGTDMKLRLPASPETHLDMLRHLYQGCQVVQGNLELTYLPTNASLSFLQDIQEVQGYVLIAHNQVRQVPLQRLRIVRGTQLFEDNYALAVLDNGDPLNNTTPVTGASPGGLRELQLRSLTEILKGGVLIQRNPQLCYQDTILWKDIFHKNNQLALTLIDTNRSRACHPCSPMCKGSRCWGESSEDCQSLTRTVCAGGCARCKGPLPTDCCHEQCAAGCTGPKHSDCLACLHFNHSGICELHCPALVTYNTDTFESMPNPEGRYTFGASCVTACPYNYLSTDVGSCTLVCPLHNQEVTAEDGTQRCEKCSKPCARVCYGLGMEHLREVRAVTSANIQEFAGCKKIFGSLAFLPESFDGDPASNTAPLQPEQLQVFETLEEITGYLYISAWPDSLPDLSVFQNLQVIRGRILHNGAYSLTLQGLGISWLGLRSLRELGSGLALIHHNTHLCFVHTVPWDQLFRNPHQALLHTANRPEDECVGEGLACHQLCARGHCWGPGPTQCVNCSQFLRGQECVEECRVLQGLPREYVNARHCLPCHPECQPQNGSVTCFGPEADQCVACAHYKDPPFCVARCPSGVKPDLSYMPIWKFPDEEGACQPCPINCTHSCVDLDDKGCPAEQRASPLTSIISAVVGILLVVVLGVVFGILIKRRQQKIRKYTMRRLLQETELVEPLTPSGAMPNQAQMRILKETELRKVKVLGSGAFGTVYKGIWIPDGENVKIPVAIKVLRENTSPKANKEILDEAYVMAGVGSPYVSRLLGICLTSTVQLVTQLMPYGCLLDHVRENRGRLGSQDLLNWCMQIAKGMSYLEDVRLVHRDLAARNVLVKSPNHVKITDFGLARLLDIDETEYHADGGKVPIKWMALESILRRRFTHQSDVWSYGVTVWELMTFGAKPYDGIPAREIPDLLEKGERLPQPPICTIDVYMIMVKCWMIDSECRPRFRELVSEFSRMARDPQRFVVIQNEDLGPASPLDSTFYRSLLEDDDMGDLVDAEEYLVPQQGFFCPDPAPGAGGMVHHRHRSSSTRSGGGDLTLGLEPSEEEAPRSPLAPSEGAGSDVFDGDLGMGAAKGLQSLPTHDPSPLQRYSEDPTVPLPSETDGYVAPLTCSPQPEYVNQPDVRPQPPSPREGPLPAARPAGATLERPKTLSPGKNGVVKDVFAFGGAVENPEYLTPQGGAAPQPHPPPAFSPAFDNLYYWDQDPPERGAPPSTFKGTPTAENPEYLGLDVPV

melting point	inhibition at 10 µM [3]	inhibition at 10 µM [4]	SMILES	IC50 [1]	IC50 [2]
237 to 238 °C	89%	69.8%	COc1cc2ncnc(Nc3ccc(Oc4ccc(Cl)c(Cl)c4)c(Cl)c3)c2cc1OCCCn1ccnc1[N+](=O)[O-] [Compound 9a, N-(3-Chloro-4-(3,4-dichlorophenoxy)phenyl)-7-methoxy-6-(3-(2-nitro-1H-imidazol-1-yl)propoxy)quinazolin-4-amine]	6.1 nM	2.3 nM
94 to 95 °C	90%	78.6%	COc1cc2ncnc(Nc3ccc(Oc4ccc(Cl)c(Cl)c4)c(Cl)c3)c2cc1OCCCCCn1ccnc1[N+](=O)[O-] [Compound 9c, N-(3-Chloro-4-(3,4-dichlorophenoxy)phenyl)-7-methoxy-6-((5-(2-nitro-1H-imidazol-1-yl)pentyl)oxy)quinazolin-4-amine]	3.3 nM	1.9 nM
90 to 91 °C	88.9%	72.1%	COc1cc2ncnc(Nc3ccc(Oc4ccc(Cl)c(Cl)c4)c(Cl)c3)c2cc1OCCCCCCn1ccnc1[N+](=O)[O-] [Compound 9d, N-(3-Chloro-4-(3,4-dichlorophenoxy)phenyl)-7-methoxy-6-((6-(2-nitro-1H-imidazol-1-yl)hexyl)oxy)quinazolin-4-amine]	2.1 nM	2.8 nM
232 to 233 °C	98.9%	81.7%	COc1cc2ncnc(Nc3ccc(Oc4cccc(C(F)(F)F)c4)c(Cl)c3)c2cc1OCCCn1ccnc1[N+](=O)[O-] [Compound 9e, N-(3-Chloro-4-(3-(trifluoromethyl)phenoxy)phenyl)-7-methoxy-6-(3-(2-nitro-1H-imidazol-1-yl)propoxy)quinazolin-4-amine]	7.3 nM	0.8 nM
90 to 91 °C	99.2%	96.2%	COc1cc2ncnc(Nc3ccc(Oc4cccc(C(F)(F)F)c4)c(Cl)c3)c2cc1OCCCCCn1ccnc1[N+](=O)[O-] [Compound 9g, N-(3-Chloro-4-(3-(trifluoromethyl)phenoxy)phenyl)-7-methoxy-6-((5-(2-nitro-1H-imidazol-1-yl)pentyl)oxy)quinazolin-4-amine]	4.6 nM	1.3 nM
84 to 85 °C	96.8%	97%	COc1cc2ncnc(Nc3ccc(Oc4cccc(C(F)(F)F)c4)c(Cl)c3)c2cc1OCCCCCCn1ccnc1[N+](=O)[O-] [Compound 9h, N-(3-Chloro-4-(3-(trifluoromethyl)phenoxy)phenyl)-7-methoxy-6-((6-(2-nitro-1H-imidazol-1-yl)hexyl)oxy)quinazolin-4-amine]	5.6 nM	1.1 nM

SMILES	melting point	inhibition at 10 µM [3]	inhibition at 10 µM [4]	IC50 [1]	IC50 [2]
COc1cc2ncnc(Nc3ccc(Oc4ccc(Cl)c(Cl)c4)c(Cl)c3)c2cc1OCCCCn1ccnc1[N+](=O)[O-] [Compound 9b, N-(3-Chloro-4-(3,4-dichlorophenoxy)phenyl)-7-methoxy-6-(4-(2-nitro-1H-imidazol-1-yl)butoxy)quinazolin-4-amine]	101 to 102 °C	94.2%	80.3%	3.1 nM	2 nM
